Assay results published in patent US8846903B2, “Acyl-urea derivatives and uses thereof” (Yissum Research Development Company of the Hebrew …, priority 2007, dated 2014).
“And” between values parts separate entries of the source, which are not always exact repeats. Equal values may be shown once.

Key:
rats [1] = test: Hippocampal kindling screen in rats; type: in vivo; settings: for ED50: Rattus norvegicus, ip
Method: In a fifth model, the hippocampal kindling assay was used to identify new drug candidates effective for the treatment of difficult-to-control seizure types and complex partial seizures, as well as compounds that may be effective as mood stabilizer for treating bipolar disorder, and was conducted according to the protocol described therein.
Briefly, this test was conducted by using a bipolar stimulating electrode which was implanted in the hippocampus of rats, and the rats were kindled according to a described method. One week after implantation of the electrodes, the rats were stimulated with supra-threshold trains of 200 μA and 50 Hz for 10 seconds every 30 minutes for 6 hours on alternate days until the animals were fully kindled. […] The behavioral seizures were scored according to the following criteria (“seizure score”): stage 1—mouth and facial clonus; stage 2—stage 1 plus head nodding; stage 3—stage 2 plus forelimb clonus; stage 4—stage 3 plus rearing; and stage 5—stage 4 plus repeated rearing and falling.
For these studies, each of the compounds was evaluated for its ability to block the kindled motor seizure (seizure scores 4 and 5) and limbic behavioral seizures (seizure score between 1 and 3). Additionally the new drug candidate was evaluated for their ability to reduce after discharge duration. The term “after-discharge-duration” is the duration (measured in seconds) of the stages defined above, which are elicited by the electrical currents delivered to the rats.
At least one week after the fully kindled state was reached, a dose of the test compound was administered intraperitoneally and its effect on behavioral seizure score and after-discharge-duration following 200 μA stimulation was assessed at various time intervals before drug administration and after drug administration. Animals not displaying stage 4 or 5 were considered affected positively from seizure generalization.

rats [2] = test: Maximal electroshock seizure test (MES) in rats; type: in vivo; settings: for ED50: Rattus norvegicus; for Fraction of rats which responded to the treatment: MES
Source text: Briefly, Maximal Electroshock Seizure (MES) assay measures drug capacity to prevent seizure spread and is thus considered to model generalized tonic-clonic seizures. […] The current was delivered to the subjects by means of corneal electrodes to produce tonic hind limb extension. Animals not displaying tonic hind limb extension were considered affected positively by the tested compound.

mice [3] = test: Psychomotor seizure (6 Hz, 32 mA) assay in mice; type: in vivo; settings: Mus musculus, ip, intraperitoneal
Method: In a third model, the compounds were tested for their ability to block 6 Hz (32 mA) seizures following intraperitoneal administration thereof to male mice. This test is aimed at identifying new drug candidates for the treatment of therapy-resistant partial seizures.
(§1) Briefly, psychomotor seizure (6-Hz) assay measures the resistance of a subject to induced psychomotor seizures. The assay was conducted in mice which were pretreated with the test compound. At varying times after treatment, individual subjects were challenged with sufficient current of 32 mA at 6 Hz for 3 seconds, or 44 mA at 6 Hz for 3 seconds, delivered through corneal electrodes to elicit a psychomotor seizure. Animals which were not affected by the current were considered affected positively by the tested compound, thus compounds which were found active in this test are considered promising novel drug candidates for the treatment of therapy-resistant seizures.

mice [4] = test: Psychomotor seizure (6 Hz, 44 mA) assay in mice; type: in vivo; settings: Mus musculus
Method: as §1

in vivo = settings: rat, po
Method: (§2) The neurotoxicity of the compounds of the present embodiments was tested using rats which were treated by oral administration, and evaluated according to the “gait and stance” test, which assesses minimal neurotoxicity. […] The median neurological toxic dose (TD50) was used for quantization of neurotoxicity.

rats [5] = test: Neurotoxicity, gait and stance test in rats (TD50); settings: oral administration, median neurological toxic dose
Method: as §2

rats [6] = test: Subcutaneous metrazol seizure threshold test (scMet) in rats; type: in vivo; settings: for ED50: Rattus norvegicus, po; for ED50 / ED50 scMet in Rats: rats, scMet model, oral administration (stated for Compound 1); for Fraction of rats which responded to the treatment: scMet
Method: Subcutaneous Metrazole Seizure Threshold Test (scMet) assay measures the ability of an agent to elevate seizure threshold and is considered to model generalized absence seizures. The assay was performed by subcutaneous injection of 85 mg/kg of the convulsant agent metrazole that induces clonic seizures in at least 97% of all animal models (rats and mice).

Sprague Dawley rats = test: Acute toxicity (acute motor impairment) after i.p. administration to rats; type: in vivo
Method: Acute toxicity was determined by recording acute motor impairment after three doses of 30, 100 and 300 mg/kg of the tested compounds. The compounds were administered by the intraperitoneal (i.p.) route to three groups of 4 Sprague Dawley rats. […]

mice [7] = settings: tested by Spielman and co-workers; cited from earlier work
mice [8] = settings: reported by Spielman et al. [19]; cited from earlier work
mice [9] = settings: reported by Spielman et al. [19]; cited from earlier work; remark: listed apart in the source
mice [10] = test: Bicuculline (BIC) clonic seizure assay in mice; type: in vivo; settings: Mus musculus, sc, BIC 2.7 mg/kg s.c., read-out: Bicucullin ED50
mice [11] = test: animal or person; type: in vivo; settings: Mus musculus, sc, read-out: Picrotoxin ED50
rats [12] = settings: results disclosed in the art; cited from earlier work
rats [13] = settings: results disclosed in the art; cited from earlier work; remark: listed apart in the source
rats [14] = settings: oral administration, literature values; cited from earlier work
mice [15] = settings: from [31]; cited from earlier work
mice [16] = settings: from [31]; cited from earlier work; remark: listed apart in the source

Structure (SMILES) | ED50 (rats [2]; rats, MES model) [mg/kg] | ED50 (mice [3]) [mg/kg] | ED50 (mice [4]) [mg/kg] | TD50 (in vivo) [mg/kg] | ED50 (rats [6]) [mg/kg] | anti-convulsant activity (mice [7]) | melting point [°C] | further results
CCCC(C(=O)NC(N)=O)C(C)C (racemic) [Compound 1, 1-(2-isopropylpentanoyl)urea] | 16 | 42.2 | 71 | 95 | 45 |  |  | ED50 (rats [1]; rats, intraperitoneal): > 94 mg/kg; TD50 in Rats (rats [5]): 94.5 mg/kg; ED50 scMet in Rats (rats [6]): 45.4 mg/kg
CC[C@@H](C)[C@@H](CC)C(=O)NC(N)=O (racemic) [Compound 4, 1-(2-ethyl-3-methyl-pentanoyl)-urea] | 24 | 21 | 48 | 97 | 14 | lack beneficial activity |  | toxicity profile (animals toxic/tested) (Sprague Dawley rats; 100 mg/kg i.p., 0.25 hours): 0/2; toxicity profile (animals toxic/tested) (Sprague Dawley rats; 100 mg/kg i.p., 0.5 hours): 1/2; toxicity profile (animals toxic/tested) (Sprague Dawley rats; 100 mg/kg i.p., 1 hour): 1/2; toxicity profile (animals toxic/tested) (Sprague Dawley rats; 100 mg/kg i.p., 2 hours): 0/2; toxicity profile (animals toxic/tested) (Sprague Dawley rats; 100 mg/kg i.p., 4 hours): 0/2; toxicity profile (animals toxic/tested) (Sprague Dawley rats; 300 mg/kg i.p., 0.25 hours): 2/2; toxicity profile (animals toxic/tested) (Sprague Dawley rats; 300 mg/kg i.p., 0.5 hours): 2/2; toxicity profile (animals toxic/tested) (Sprague Dawley rats; 300 mg/kg i.p., 1 hour): 2/2; toxicity profile (animals toxic/tested) (Sprague Dawley rats; 300 mg/kg i.p., 2 hours): 2/2; toxicity profile (animals toxic/tested) (Sprague Dawley rats; 300 mg/kg i.p., 4 hours): 2/2; activity in the scMet assay (mice [8]): only active at toxic doses; activity in the MES assay (mice [9]): inactive
CCC[C@H](C(=O)NC(N)=O)C(C)C (stereo in doubt) [Compound 1R, R-1-(2-isopropylpentanoyl)urea] |  | 43 | 56 |  |  |  |  | 
CCC[C@@H](C(=O)NC(N)=O)C(C)C [Compound 1S, S-1-(2-isopropylpentanoyl)urea] |  | 46 | 75 |  |  |  |  | 
CC(C)C(C(=O)NC(N)=O)C(C)C [Compound 2, 1-(2-isopropyl-3-methylbutanoyl)urea] | 33 | 43.3 | 48.6 |  | 16 |  | 199 to 200 | ED50 (rats [1]; rats, intraperitoneal): > 200 mg/kg; Fraction of rats which responded to the treatment (rats [2]; dose 15 mg/kg): 1/8; Fraction of rats which responded to the treatment (rats [2]; dose 30 mg/kg): 5/8; Fraction of rats which responded to the treatment (rats [2]; dose 60 mg/kg): 5/8; Fraction of rats which responded to the treatment (rats [2]; dose 120 mg/kg): 8/8; ED50 MES in Rats (rats [2]; rats, MES model): 32.7 mg/kg; ED50 scMet in Rats (rats [6]): 15.7 mg/kg; Fraction of rats which responded to the treatment (rats [6]; dose 6 mg/kg): 1/8; Fraction of rats which responded to the treatment (rats [6]; dose 12 mg/kg): 2/8; Fraction of rats which responded to the treatment (rats [6]; dose 25 mg/kg): 6/8; Fraction of rats which responded to the treatment (rats [6]; dose 50 mg/kg): 8/8
CC(C)(C)CC(=O)NC(N)=O [Compound 3, 1-(3,3-dimethyl-butyryl)urea] | 63.9 | 80 |  | 143 | 26 |  | 174 to 175 | ED50 (rats [1]; rats, intraperitoneal): 35 mg/kg; After Discharge Duration After administration (rats [1]; individual kindled rats, 15 minutes after intraperitoneal administration, before: 93-103 (rat 1), 28-75 (rat 2)): significantly decreased and 4 sec and 14 sec; Seizure Score After administration (rats [1]; individual kindled rats, 15 minutes after intraperitoneal administration, score before administration 5): 0; ED50 Hippocampal kindling in Rats (rats [1]; rats, intraperitoneal): 35.1 mg/kg; ED50 (mice [10]): 205 mg/kg; ED50 (mice [11]): 167 mg/kg
CCCCC(CC)C(=O)NC(N)=O (centres unmarked) [Compound 5, 1-(2-ethyl-hexanoyl)-urea] |  |  |  |  |  | lack beneficial activity | 158 to 159 | 
CCCC(CCC)C(=O)NC(N)=O [Compound 6, 1-(2-propyl-pentanoyl)-urea] | 53.8 | 57.8 | 105 |  | 76.8 | lack beneficial activity |  | ED50 (rats [1]; rats, intraperitoneal): > 180 mg/kg
CC(C)CC(=O)NC(N)=O [Compound 7, 3-methylbutanoylurea] | > 250 |  |  | < 500 | 83 | lack beneficial activity |  | 
CCC(C)C(=O)NC(N)=O (centres unmarked) [Compound 8, 2-methylbutanoylurea] |  |  |  |  |  | lack beneficial activity | 178 to 180 | 
CC(C)(C)C(=O)NC(N)=O [Compound 9, 2,2-dimethylpropanoylurea] | 69.4 |  |  | 228 | 29.8 |  | 148 to 149 | 
CC1(C)C(C(=O)NC(N)=O)C1(C)C [Reference Compound 1, N-(2,2,3,3-tetramethylcyclopropanecarbonyl)urea] |  |  |  |  |  |  |  | ED50 rat-scMet model (rats [12]): 92 mg/kg; ED50 rat-MES model (rats [13]): 29 mg/kg
CC1(C)C(C(=O)NCC(N)=O)C1(C)C [Reference Compound 2, N-(2,2,3,3-tetramethylcyclopropylcarbonyl)glycinamide] |  |  |  |  |  |  |  | TD50 (rats [14]): above 500 mg/kg; ED50 rat-scMet model (rats [12]): higher than 250 mg/kg; ED50 rat-MES model (rats [13]): 73 mg/kg
CCCC(CCC)C(=O)O [Valproic acid, valproic acid] |  |  |  |  |  |  |  | ED50 rat-scMet model (rats [12]): 646 mg/kg; Picrotoxin ED50 (mice [15]): 270 mg/kg; Bicucullin ED50 (mice [16]): 589 mg/kg
